In US20140017336A1, “CO-ADMINISTRATION OF ARSENIC COMPOUNDS AND ANTI-HERPES VIRUS ANTI-VIRALS” (priority 2011, published 2014):
Entries after “also recorded” stand apart in the source; their conditions may differ.

How the values were obtained:
[1] = system: EBV immediate early protein Zta; test: Zta immunofluorescence in EBV infected A549 cells; type: cell-based, Epstein-Barr virus
Protocol: A549 cells were plated on 8-chambered Lab-Tek slides at 3×10^4 cells per well; chemical treatment began 24 hours after plating. At specified time points, cells were rinsed twice with PBS and fixed in 4% paraformaldehyde (freshly diluted from 16%, Electron Microscopy Science, Hatfield, Pa.) for 10 min at room temperature. The cells were then rinsed twice with PBS and permeabilized with 0.5% Triton™ X100 (Sigma) in PBS for 15 min at room temperature. Primary antibodies were applied at specified concentrations overnight in a humidified chamber at 4° C. Following 3 rinses in PBS, secondary antibodies were diluted 1:500 and applied for 1 hour at room temperature. The chambers were removed and Vectashield® with DAPI (Vector Laboratories, Burlingame, Calif. #H1200) was applied with cover slip mount. […]
To investigate the ability of ATO to disrupt PML NB in EBV infected A549 cells, cells were treated with varying doses of ATO for 24 hours and PML NBs were imaged. […] To assess whether EBV positivity affected PML protein levels, cell fractions from two separate EBV infections (A549<EBV>2C and A549<EBV>3A) and uninfected parental A549 cells were analyzed by western blot. […] To quantify the increase in Zta expression, mRNA isolated from A549<EBVBX1>3A cells treated with varying doses of ATO for 72 hours was analyzed by qRT-PCR. […]

LCL<EBV1-13> cells = type: cell-based, human; settings: 45 μM GCV, 1.0 nM ATO

For arsenic trioxide [ATO], the “cells staining positively for Zta” value ([1]; day 8, 10 nM ATO plus or minus GCV) was 100%, the “number of Zta positive cells, dose response” value ([1]; varying doses of ATO, 72 hours (3 days), two separate EBV infections of A549 cells) was “increase in the number of Zta positive cells in an ATO dose responsive manner; also recorded: increases the number of Zta positive cells in a dose dependent manner” and the “viable cells after a third day of treatment compared with two days” value (LCL<EBV1-13> cells) was “barely changed”.
